Test [1] has as its target T1, Wee-1 kinase (Homo sapiens, UniProt P30291).
T1 construct: purchased Invitrogen
In words: Inhibitory activity against Wee-1 kinase (Lanthra Screen Wee-1 kinase kit, Tracer 178). Format: binding. Particulars: Wee-1 kinase 5 nM, Tracer 178 50 nM, 1 h room temperature. The method, boiled down:
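Compound gradient in DMSO mixed with 5 nM Wee-1, 2 nM Eu-anti-GST antibody and 50 nM Tracer 178 (all final). Read after one hour at room temperature; IC50 calculated against the DMSO solvent control.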

Test [2] has as its system HT29 cells. Description: Antiproliferative activity against HT29 cells (Cell Titer-Lumi, ATP content). Particulars: Homo sapiens, HT-29, 72 after compound addition, read-out: HT-29 cells Anti-proliferative activity (IC50 for the inhibition against HT-29 cell growth). Format: cell-based. A digest of the protocol:
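Growth inhibition IC50 derived from luminescent ATP content after 72 (units as printed) of compound exposure over a dilution gradient. Seeding density 3000 cells per well; compound added once cells had adhered overnight.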

T1 sequence (P30291 whole entry): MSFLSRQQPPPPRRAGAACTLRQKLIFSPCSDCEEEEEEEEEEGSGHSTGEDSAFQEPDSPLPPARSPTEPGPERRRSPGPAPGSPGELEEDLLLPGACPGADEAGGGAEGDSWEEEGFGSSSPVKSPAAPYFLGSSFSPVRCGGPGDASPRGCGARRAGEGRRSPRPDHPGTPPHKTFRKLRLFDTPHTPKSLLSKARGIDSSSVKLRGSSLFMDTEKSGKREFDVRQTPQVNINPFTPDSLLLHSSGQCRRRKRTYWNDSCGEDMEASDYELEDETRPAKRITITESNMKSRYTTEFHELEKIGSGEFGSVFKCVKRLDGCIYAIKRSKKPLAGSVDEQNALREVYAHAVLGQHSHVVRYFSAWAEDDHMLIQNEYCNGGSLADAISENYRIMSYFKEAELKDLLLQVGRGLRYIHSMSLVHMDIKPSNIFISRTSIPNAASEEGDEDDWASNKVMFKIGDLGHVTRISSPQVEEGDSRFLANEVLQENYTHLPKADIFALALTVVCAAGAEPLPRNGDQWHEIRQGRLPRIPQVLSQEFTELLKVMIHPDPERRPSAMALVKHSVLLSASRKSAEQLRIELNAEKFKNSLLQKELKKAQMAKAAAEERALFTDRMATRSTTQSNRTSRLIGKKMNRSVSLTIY

For the compound `C=CCn1c(=O)c2cnc(Nc3ccc4c(c3)CNCC4)nc2n1-c1ccc(=O)n(C(C)C)n1` [Compound 225], the values for the IC50 in test [1] and in test [2] were ≤ 0.03 µM and ≤ 1 µM, respectively.

For `C=CCn1c(=O)c2cnc(Nc3ccc(N4CC[C@H](N(C)C)C4)cc3)nc2n1-c1ccc(=O)n(C(C)C)n1` [Compound 92], the IC50 in test [1] was ≤ 0.03 µM; in test [2], ≤ 1 µM.

With `C=CCn1c(=O)c2cnc(Nc3ccc(N4CCC(N5CCCC5)CC4)cc3)nc2n1-c1ccc(=O)n(C(C)C)n1` [Compound 89], the values for the 50% inhibitory concentration (IC50) in test [1] and in test [2] were ≤ 0.03 µM and ≤ 1 µM, respectively.

`C=CCn1c(=O)c2cnc(Nc3ccc(N4CC5(CNC5)C4)c(C)c3)nc2n1-c1ccc(=O)n(C(C)C)n1` [Compound 155]: the concentration for half-maximal inhibition (IC50) is ≤ 0.03 µM in test [1] and ≤ 1 µM in test [2].

With `C=CCn1c(=O)c2cnc(Nc3ccc(N4CCN(CC(F)(F)F)CC4)cc3)nc2n1-c1ccc(=O)n(C(C)C)n1` [Compound 39], the IC50 was ≤ 0.03 µM in test [1] and ≤ 1 µM in test [2].

In the case of `C=CCn1c(=O)c2cnc(Nc3ccc(N4CCN(C)CC4)cc3)nc2n1-c1cc(OC)c(=O)n(C(C)C)c1` [Compound 27], the half-inhibitory concentration (IC50) in test [1] was 0.03 to 0.1 µM; in test [2] it was > 3 µM.

As to `CC(C)n1cc(-n2c3nc(Nc4ccc(N5CCN(C)CC5)cc4)ncc3c(=O)n2C2CC2)ccc1=O` [Compound 307], the IC50 was ≤ 0.03 µM in test [1] and ≤ 1 µM in test [2].

Take `C=CCn1c(=O)c2cnc(Nc3ccc(C4CCN(C)CC4)c(CC(F)(F)F)c3)nc2n1-c1ccc(=O)n(C(C)C)n1` [Compound 199]: the IC50 was ≤ 0.03 µM in test [1] and ≤ 1 µM in test [2].

On to `Cc1cc(Nc2ncc3c(=O)n(C(C)C)n(-c4ccc(=O)n(C(C)(C)C)n4)c3n2)ccc1N1CCN(C)CC1` [Compound 289], for which the IC50 was ≤ 0.03 µM in test [1] and ≤ 1 µM in test [2].

Regarding `C=CCn1c(=O)c2cnc(Nc3ccc(N4CCN(C)CC4)cc3)nc2n1-c1ccc(=O)n(C)n1` [Compound 1, 2-allyl-1-(1-methyl-6-oxo-1,6-dihydropyridazin-3-yl)-6-((4-(4-methylpiperazin-1-yl)phenyl)amino)-1,2-dihydro-3H-pyrazolo[3,4-d]pyrimidin-3-one], the IC50 in test [1] was > 0.1 µM; in test [2], > 3 µM.

`C=CCn1c(=O)c2cnc(Nc3ccc(N4CCC5(CC4)CN(C)C5)c(C)c3)nc2n1-c1ccc(=O)n(C(C)C)n1` [Compound 179]: the IC50 is ≤ 0.03 µM in test [1] and ≤ 1 µM in test [2].

`C=CCn1c(=O)c2cnc(Nc3ccc(N4CCC5(CN(C)C5)C4)c(C)c3)nc2n1-c1ccc(=O)n(C(C)C)n1` [Compound 173]: the results for the 50% inhibitory concentration (IC50) in test [1] and in test [2] were ≤ 0.03 µM and ≤ 1 µM, respectively.

Turning to `C=CCn1c(=O)c2cnc(Nc3ccc(C4CCN(C)CC4)c(C)c3)nc2n1-c1ccc(=O)n(C(C)(C)C)n1` [Compound 282], the values for the IC50 in test [1] and in test [2] were ≤ 0.03 µM and ≤ 1 µM, respectively.

In the case of `C=CCn1c(=O)c2cnc(Nc3cc(N4CCC(N(C)C)CC4)c4ccn(C)c4c3)nc2n1-c1ccc(=O)n(C(C)C)n1` [Compound 257], the IC50 in test [1] is ≤ 0.03 µM; in test [2] it was ≤ 1 µM.

Take `Cc1cc(Nc2ncc3c(=O)n(C(C)C)n(-c4ccc(=O)n(C(C)(C)C)n4)c3n2)ccc1C1CCN(C)CC1` [Compound 290]: the half-inhibitory concentration (IC50) in test [1] is ≤ 0.03 µM; in test [2], ≤ 1 µM.

Regarding `CC(C)n1cc(-n2c3nc(Nc4ccc5c(c4)CN(C)CC54CC4)ncc3c(=O)n2C(C)C)cc(F)c1=O` [Compound 322], the IC50 in test [1] is ≤ 0.03 µM; in test [2], ≤ 1 µM.

Take `CCn1c(=O)c2cnc(Nc3ccc(C4CCN(C)CC4)c(C)c3)nc2n1-c1ccc(=O)n(C(C)(C)C)n1` [Compound 286]: the figures for the IC50 in test [1] and in test [2] were ≤ 0.03 µM and ≤ 1 µM, respectively.

As for `C=CCn1c(=O)c2cnc(Nc3ccc(N4CCNCC4)c(CO)c3)nc2n1-c1ccc(=O)n(C(C)C)c1` [Compound 51], the IC50 in test [1] lay in the range of 0.03 to 0.1 µM; in test [2], 1 to 3 µM.

Take `C=CCn1c(=O)c2cnc(Nc3ccc(N4CCN(C)CC4)cc3)nc2n1-c1ccc(=O)n(CC(C)(C)C)n1` [Compound 6]: the values for the IC50 in test [1] and in test [2] were 0.03 to 0.1 µM and 1 to 3 µM, respectively.

As to `Cc1cc(Nc2ncc3c(=O)n(C4CC4)n(-c4cc(F)c(=O)n(C(C)C)c4)c3n2)ccc1C1CCN(C)CC1` [Compound 325], the IC50 was ≤ 0.03 µM in test [1] and ≤ 1 µM in test [2].

Consider `C=CCn1c(=O)c2cnc(Nc3ccc(N4C[C@H](C)N(C)C[C@H]4C)c(C)c3)nc2n1-c1ccc(=O)n(C(C)C)n1` [Compound 127], for which the concentration for half-maximal inhibition (IC50) in test [1] was ≤ 0.03 µM; in test [2], ≤ 1 µM.

Regarding `C=CCn1c(=O)c2cnc(Nc3ccc(N4CCC(N)CC4)c(OC)c3)nc2n1-c1ccc(=O)n(C(C)C)n1` [Compound 103], the half-maximal inhibitory concentration (IC50) is ≤ 0.03 µM in test [1] and ≤ 1 µM in test [2].

With `C=CCn1c(=O)c2cnc(Nc3ccc(N4CCC(C)(NC)CC4)c(C)c3)nc2n1-c1ccc(=O)n(C(C)C)n1` [Compound 111], the IC50 was ≤ 0.03 µM in test [1] and ≤ 1 µM in test [2].

On to `C=CCn1c(=O)c2cnc(Nc3ccc4c(N5CCN(C)CC5)c[nH]c4c3)nc2n1-c1ccc(=O)n(C(C)C)n1` [Compound 261], for which the IC50 is ≤ 0.03 µM in test [1] and ≤ 1 µM in test [2].

As to `Cc1cc(Nc2ncc3c(=O)n(C4CC4)n(-c4ccc(=O)n(C(C)(C)C)c4)c3n2)ccc1C1CCN(C)CC1` [Compound 340], the figures for the concentration for half-maximal inhibition (IC50) in test [1] and in test [2] were ≤ 0.03 µM and ≤ 1 µM, respectively.

As to `C=CCn1c(=O)c2cnc(Nc3ccc(N4CCNCC4)c(OC)c3)nc2n1-c1ccc(=O)n(C(C)C)c1` [Compound 47], the values for the concentration for half-maximal inhibition (IC50) in test [1] and in test [2] were ≤ 0.03 µM and ≤ 1 µM, respectively.

As for `C=CCn1c(=O)c2cnc(Nc3ccc(N4CC(N5CCC5)C4)c(C)c3)nc2n1-c1ccc(=O)n(C(C)C)n1` [Compound 81], the IC50 in test [1] is ≤ 0.03 µM; in test [2] it was ≤ 1 µM.

As for `C=CCn1c(=O)c2cnc(Nc3ccc(N4CC(N(C)C)C4)cc3)nc2n1-c1ccc(=O)n(C(C)C)n1` [Compound 77], the IC50 in test [1] was ≤ 0.03 µM; in test [2] it was ≤ 1 µM.

In the case of `C=CCn1c(=O)c2cnc(Nc3ccc(N4CCC(N5CCCC5)CC4)c(C)c3)nc2n1-c1ccc(=O)n(C(C)C)n1` [Compound 90], the 50% inhibitory concentration (IC50) in test [1] was ≤ 0.03 µM; in test [2], ≤ 1 µM.

Turning to `C=CCn1c(=O)c2cnc(Nc3ccc(N4CCN[C@H](C)C4)cc3)nc2n1-c1ccc(=O)n(C(C)C)n1` [Compound 131], the 50% inhibitory concentration (IC50) in test [1] is ≤ 0.03 µM; in test [2], ≤ 1 µM.

As for `C=CCn1c(=O)c2cnc(Nc3ccc(N4CCNCC4)c(Cl)c3)nc2n1-c1ccc(=O)n(C(C)C)c1` [Compound 45], the concentration for half-maximal inhibition (IC50) in test [1] is ≤ 0.03 µM; in test [2], ≤ 1 µM.

For `C=CCn1c(=O)c2cnc(Nc3ccc(N4CCN[C@@H](C)C4)c(C)c3)nc2n1-c1ccc(=O)n(C(C)C)n1` [Compound 130], the values for the IC50 in test [1] and in test [2] were ≤ 0.03 µM and ≤ 1 µM, respectively.

For the compound `C=CCn1c(=O)c2cnc(Nc3ccc(N4CCC5(CC4)CNC5)c(OC)c3)nc2n1-c1ccc(=O)n(C(C)C)n1` [Compound 177], the values for the 50% inhibitory concentration (IC50) in test [1] and in test [2] were ≤ 0.03 µM and ≤ 1 µM, respectively.

Regarding `C=CCn1c(=O)c2cnc(Nc3ccc(N4CCN(C)CC4)cc3)nc2n1-c1cc(OC)c(=O)n(C(C)C)n1` [Compound 23], the IC50 was ≤ 0.03 µM in test [1] and > 3 µM in test [2].

Take `CC(C)n1c(=O)c2cnc(Nc3ccc4c(c3)CN(C)CC43CC3)nc2n1-c1ccc(=O)n(C(C)(C)C)c1` [Compound 337]: the IC50 is ≤ 0.03 µM in test [1] and ≤ 1 µM in test [2].

Consider `CCn1c(=O)c2cnc(Nc3ccc4c(c3)CN(C)CC43CC3)nc2n1-c1ccc(=O)n(C(C)C)n1` [Compound 277], for which the results for the IC50 in test [1] and in test [2] were ≤ 0.03 µM and ≤ 1 µM, respectively.

For the compound `CCn1c(=O)c2cnc(Nc3ccc(N4CCN(C)CC4)c(C)c3)nc2n1-c1ccc(=O)n(C(C)(C)C)n1` [Compound 285], the IC50 in test [1] is ≤ 0.03 µM; in test [2], ≤ 1 µM.

As to `CC(C)n1c(=O)c2cnc(Nc3ccc4c(c3)CN(C)CC43CC3)nc2n1-c1ccc(=O)n(C(C)(C)C)n1` [Compound 291], the half-inhibitory concentration (IC50) in test [1] is ≤ 0.03 µM; in test [2] it was ≤ 1 µM.

As to `C=CCn1c(=O)c2cnc(Nc3ccc(N4CCC(N5CCC(F)(F)CC5)CC4)c(OC)c3)nc2n1-c1ccc(=O)n(C(C)C)n1` [Compound 153], the 50% inhibitory concentration (IC50) in test [1] was ≤ 0.03 µM; in test [2], ≤ 1 µM.

For `C=CCn1c(=O)c2cnc(Nc3cc(N4CCN(C(C)C)CC4)c4cc[nH]c4c3)nc2n1-c1ccc(=O)n(C(C)C)n1` [Compound 253], the IC50 in test [1] was ≤ 0.03 µM; in test [2] it was ≤ 1 µM.

Regarding `C=CCn1c(=O)c2cnc(Nc3ccc(N4C[C@@H](C)N(C)[C@@H](C)C4)c(Cl)c3)nc2n1-c1ccc(=O)n(C(C)C)n1` [Compound 121], the values for the IC50 in test [1] and in test [2] were ≤ 0.03 µM and ≤ 1 µM, respectively.

Regarding `C=CCn1c(=O)c2cnc(Nc3ccc(N4CCN(C)CC4)cc3)nc2n1-c1cc(C(F)(F)F)c(=O)n(C(C)C)c1` [Compound 25], the IC50 is ≤ 0.03 µM in test [1] and ≤ 1 µM in test [2].

Turning to `C=CCn1c(=O)c2cnc(Nc3ccc(N4CC5(CCNCC5)C4)c(OC)c3)nc2n1-c1ccc(=O)n(C(C)C)n1` [Compound 168], the IC50 in test [1] was in the range of 0.03 to 0.1 µM; in test [2] it was 1 to 3 µM.

In the case of `C=CCn1c(=O)c2cnc(Nc3ccc(N4CCN(C)CC4)cc3)nc2n1-c1cn(C(C)C)c(=O)cc1C` [Compound 29], the IC50 was ≤ 0.03 µM in test [1] and ≤ 1 µM in test [2].

In the case of `Cc1cc(Nc2ncc3c(=O)n(C4CC4)n(-c4ccc(=O)n(C(C)(C)C)n4)c3n2)ccc1C1CCN(C)CC1` [Compound 294], the IC50 in test [1] is ≤ 0.03 µM; in test [2], ≤ 1 µM.

With `C=CCn1c(=O)c2cnc(Nc3ccc(N4CCC(N5CCCCC5)CC4)c(C)c3)nc2n1-c1ccc(=O)n(C(C)C)n1` [Compound 146], the 50% inhibitory concentration (IC50) in test [1] was ≤ 0.03 µM; in test [2] it was ≤ 1 µM.

These data come from patent US12522607B2, “Substituted pyrazolo[3,4-d]pyrimidines as wee-1 inhibitors” (WIGEN BIOMEDICINE TECHNOLOGY (SHANGHAI) CO., LTD., priority 2020, dated 2026).
